Experimental data published in patent US4464373A, “4,5-Dihydroimidazo-[1,2-a]quinoxaline-2-carboxylic acids and their derivatives with antiallergic activity” (Roussel Uclaf, priority 1982, dated 1984).

System: passive cutaneous reaction mediated by Ig G antibodies
Test: Passive cutaneous anaphylaxis of the rat (PCR), Ig G mediated, oral
Assay type: in vivo
Settings: male Wistar rats, ovalbumin challenge
Experimental: Passive cutaneous anaphylaxis of the rat (PCR)
Passive cutaneous anaphylaxis in the rat was carried out with male Wistar rats weighing 180-200 g which were sensitized by intradermal injection into four sites on the shaved back to produce a passive cutaneous reaction mediated by Ig G antibodies (a 4 hour sensitization following injection of antiserum heated at 56° C. for one hour). Antigen challenge was carried out in the same way; 1 mg of ovalbumen together with 0.5 ml of 1% Evans blue dye solution were injected intravenously and 30 minutes later, the animals were killed and the severity and area of each blue spot was scored when viewed from the reverse side of the skin.

CCOC(=O)c1cn2c(n1)CN(C(=O)OCC)c1ccccc1-2 [Example 3, Diethyl 4,5-dihydroimidazo[1,2-a]quinoxaline-2,5-dicarboxylate]
inhibition in vivo at 0.1 mg/kg: 26.3% | inhibition in vivo at 1 mg/kg: 67.5%

CCOC(=O)c1cn2c(n1)CN(C(=O)Nc1ccccc1)c1ccccc1-2 [Example 4, Ethyl 4,5-dihydro-5-(phenylcarboxamido)imidazo[1,2-a]quinoxaline-2-carboxylate]
inhibition in vivo at 1 mg/kg: 5.2%

CCOC(=O)c1cn2c(n1)CN(C(=O)NCCN1CCOCC1)c1ccccc1-2 [Example 5B, Ethyl 4,5-dihydro-5-(morpholinoethylcarboxamido)imidazo[1,2-a]quinoxaline-2-carboxylate]
inhibition in vivo at 1 mg/kg: 33.8%

COC(=O)N1Cc2nc(C(=O)O)cn2-c2ccccc21 [Example 6, 4,5-dihydro-5-(methoxycarbonyl)imidazo[1,2-a]quinoxaline-2-carboxylic acid]
inhibition in vivo at 0.1 mg/kg: 19% | inhibition in vivo at 1 mg/kg: 61.1%

CCOC(=O)c1cn2c(n1)CN(C(C)=O)c1ccccc1-2 [Example 7, Ethyl 5-acetyl-4,5-dihydroimidazo[1,2-a]quinoxaline-2-carboxylate]
inhibition in vivo at 0.1 mg/kg: 32.5% | inhibition in vivo at 1 mg/kg: 49.4%

CCOC(=O)c1cn2c(n1)CN(C(=O)OCc1ccccc1)c1ccccc1-2 [Example 8, Ethyl 4,5-dihydro-5-(benzyloxycarbonyl)imidazo[1,2-a]quinoxaline-2-carboxylate]
inhibition in vivo at 1 mg/kg: 14.3%

CCOC(=O)c1cn2c(n1)CN(C(=O)OC)c1ccccc1-2 [Example 9, Ethyl 4,5-dihydro-5-(methoxycarbonyl)imidazo[1,2-a]quinoxaline-2-carboxylate]
inhibition in vivo at 0.1 mg/kg: 18.8% | inhibition in vivo at 1 mg/kg: 75.6%

CCCOC(=O)N1Cc2nc(C(=O)OCC)cn2-c2ccccc21 [Example 11, Ethyl 4,5-dihydro-5-(propyloxycarbonyl)imidazo[1,2-a]quinoxaline-2-carboxylate]
inhibition in vivo at 1 mg/kg: 44%

CCCCOC(=O)N1Cc2nc(C(=O)OCC)cn2-c2ccccc21 [Example 12, Ethyl 4,5-dihydro-5-(butyloxycarbonyl)imidazo[1,2-a]quinoxaline-2-carboxylate]
inhibition in vivo at 1 mg/kg: 26.2%

CCOC(=O)c1cn2c(n1)CN(C(=O)NCCN(CC)CC)c1ccccc1-2 [Example 14, Ethyl 4,5-dihydro-5-(diethylaminoethylcarboxamido)imidazo[1,2-a]quinoxaline-2-carboxylate]
inhibition in vivo at 0.1 mg/kg: 16.8% | inhibition in vivo at 1 mg/kg: 42.8%
